ChEMBL document CHEMBL1201862, “PubChem BioAssay data set” (2004)
The source made the active and inactive calls.

How the values were obtained:
[1] = molecular target: T1, Tyrosine-protein phosphatase non-receptor type 7 (Homo sapiens, UniProt P35236); assay: redox-dependent HePTP inhibition, mechanism study, biochemical, fluorescence (AID 2068); assay type: functional
T1 sequence (P35236 whole entry): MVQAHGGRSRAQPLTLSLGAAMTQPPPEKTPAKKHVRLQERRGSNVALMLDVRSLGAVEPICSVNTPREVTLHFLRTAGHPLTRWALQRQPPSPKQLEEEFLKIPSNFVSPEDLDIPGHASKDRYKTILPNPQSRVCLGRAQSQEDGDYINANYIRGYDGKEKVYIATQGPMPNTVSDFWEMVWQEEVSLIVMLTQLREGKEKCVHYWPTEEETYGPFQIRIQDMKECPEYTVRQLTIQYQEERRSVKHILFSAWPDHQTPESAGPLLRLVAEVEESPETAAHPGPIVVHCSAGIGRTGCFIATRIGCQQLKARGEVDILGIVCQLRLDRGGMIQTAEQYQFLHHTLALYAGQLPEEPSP

[2] = cytotoxicity in HPDE-C7 cells, cell-based, fluorescence, HTS (AID 430); assay type: functional; details: Homo sapiens
[3] = cytotoxicity in KRAS-transformed pancreatic duct cells, primary screen, cell-based, fluorescence, HTS (AID 431); assay type: functional; details: Homo sapiens;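 also: cell line used: HPDE-C7K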
[4] = NIH-3T3 fibroblast cytotoxicity, dose response, cytotoxicity control, cell-based, fluorescence, Alamar Blue, secondary assay (AID 2327); assay type: functional;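 also: NIH-3T3 mouse fibroblasts cultured with fluconazole at 8 µg/mL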
[5] = C. albicans growth with fluconazole, confirmation, fluorescence, retest (AID 2467); assay type: functional, cell-based
[6] = inhibitors of intracellular T. cruzi replication, confirmation, NIH3T3 host cells, beta-gal luminescence (AID 2044); assay type: functional, cell-based;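 also: intracellular parasites grown in NIH/3T3 mouse fibroblasts as host cells; luminescent beta-galactosidase reporter signal from transgenic T. cruzi replicating inside host cells; inhibitors lower the luminescence signal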
[7] = cytotoxicity toward NIH3T3 fibroblasts, dose response, counter-screen, cell-based, ATP luminescence, mouse fibroblasts (AID 2010); assay type: functional;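 also: cells exposed to compound for about 90 hours before reading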
[8] = cytotoxicity in HEK-293T cells, dose response, cytotoxicity control for TCR NF-kB inhibitor project, luminescence, T-cell screen hits (AID 489026); assay type: functional, cell-based;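 also: cells exposed to compound about 14 hours before the viability readout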
[9] = cells
[10] = molecular target: T2, Aminopeptidase N (Plasmodium falciparum FcB1/Columbia, UniProt O96935); assay: P. falciparum M1AAP inhibitors, biochemical, fluorogenic H-Leu-NHMec substrate, 1536-well (AID 1445); design: species or system Plasmodium falciparum 3D7, 3D7
T2 sequence (O96935 whole entry): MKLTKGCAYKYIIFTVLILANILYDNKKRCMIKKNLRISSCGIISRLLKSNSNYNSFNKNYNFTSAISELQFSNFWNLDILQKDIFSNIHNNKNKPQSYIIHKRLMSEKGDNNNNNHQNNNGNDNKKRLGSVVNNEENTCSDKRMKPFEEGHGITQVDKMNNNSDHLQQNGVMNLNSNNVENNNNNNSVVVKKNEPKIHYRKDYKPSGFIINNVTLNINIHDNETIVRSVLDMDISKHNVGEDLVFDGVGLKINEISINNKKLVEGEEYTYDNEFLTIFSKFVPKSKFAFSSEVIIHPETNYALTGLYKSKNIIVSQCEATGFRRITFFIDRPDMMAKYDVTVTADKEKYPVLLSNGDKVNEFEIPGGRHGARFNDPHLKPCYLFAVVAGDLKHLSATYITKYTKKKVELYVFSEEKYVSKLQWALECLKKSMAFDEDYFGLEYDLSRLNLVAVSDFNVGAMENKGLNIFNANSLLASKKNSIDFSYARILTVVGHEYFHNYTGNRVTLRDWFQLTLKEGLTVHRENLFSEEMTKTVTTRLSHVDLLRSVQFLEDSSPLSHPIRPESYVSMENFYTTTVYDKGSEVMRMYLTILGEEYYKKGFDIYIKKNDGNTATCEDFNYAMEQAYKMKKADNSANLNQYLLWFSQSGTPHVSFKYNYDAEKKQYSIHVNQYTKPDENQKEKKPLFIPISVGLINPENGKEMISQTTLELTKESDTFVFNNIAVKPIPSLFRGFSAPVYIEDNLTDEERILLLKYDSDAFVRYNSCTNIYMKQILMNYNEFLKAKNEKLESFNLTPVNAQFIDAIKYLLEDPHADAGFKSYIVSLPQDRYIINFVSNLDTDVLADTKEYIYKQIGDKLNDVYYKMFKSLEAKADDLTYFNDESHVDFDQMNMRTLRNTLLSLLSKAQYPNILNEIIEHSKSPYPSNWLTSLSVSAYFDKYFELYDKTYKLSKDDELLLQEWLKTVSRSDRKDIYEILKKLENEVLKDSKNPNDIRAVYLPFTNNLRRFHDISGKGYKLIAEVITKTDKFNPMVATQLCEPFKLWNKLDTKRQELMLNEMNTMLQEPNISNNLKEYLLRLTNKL

[11] = molecular target: T3, Leucine aminopeptidase (Plasmodium falciparum 3D7, UniProt Q8IL11); assay: P. falciparum M17LAP inhibitors, primary screen, biochemical, fluorogenic H-Leu-NHMec substrate, 1536-well (AID 1619); assay type: functional
T3 sequence (Q8IL11 whole entry): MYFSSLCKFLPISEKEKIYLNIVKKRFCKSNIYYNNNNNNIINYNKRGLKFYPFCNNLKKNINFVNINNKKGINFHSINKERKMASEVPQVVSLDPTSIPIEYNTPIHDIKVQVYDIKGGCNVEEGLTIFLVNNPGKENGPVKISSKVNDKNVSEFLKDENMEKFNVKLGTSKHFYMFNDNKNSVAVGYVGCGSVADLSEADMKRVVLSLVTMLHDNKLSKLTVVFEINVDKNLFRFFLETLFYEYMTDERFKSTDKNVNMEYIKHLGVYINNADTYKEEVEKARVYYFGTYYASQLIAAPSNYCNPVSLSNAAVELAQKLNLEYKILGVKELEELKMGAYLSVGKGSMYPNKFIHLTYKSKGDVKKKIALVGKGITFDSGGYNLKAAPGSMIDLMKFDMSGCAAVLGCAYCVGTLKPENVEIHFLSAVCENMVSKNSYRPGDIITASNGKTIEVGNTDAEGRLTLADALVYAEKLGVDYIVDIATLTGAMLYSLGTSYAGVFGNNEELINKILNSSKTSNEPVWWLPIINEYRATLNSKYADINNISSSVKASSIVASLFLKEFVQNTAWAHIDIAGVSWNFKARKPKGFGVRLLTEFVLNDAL

[12] = cytotoxicity in HEK-293T cells, dose response, cytotoxicity control for BCR NF-kB inhibitor project, luminescence, B-cell screen hits (AID 489021); assay type: functional, cell-based;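 also: HEK-293T cells carrying an NF-kB luciferase reporter; cells exposed to compound for about 14 hours before viability readout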
[13] = tested on: INS1; assay: beta cell apoptosis inhibitors, cytokine rescue, dose response, luminescence, retest (AID 449756); assay type: functional, cell-based; details: Rattus norvegicus;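 also: cell death triggered by IL-1 beta plus TNF-alpha plus IFN-gamma mixture; protective hits raise ATP signal compared with cytokine alone wells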
[14] = tested on: Streptococcus sp. 'group A'; assay: growth inhibition of control SK(-) GAS strain, dose response, counter-screen for streptokinase expression inhibitor project, luminescence, kanamycin, BacTiterGlo, confirmation (AID 1900); assay type: functional, organism-based
[15] = tested on: Streptococcus; assay: Group A Streptococcus viability loss, dose response, counter-screen for streptokinase expression inhibitor project, luminescence, BacTiterGlo (AID 1915); assay type: functional, organism-based;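 also: potency for reduction of bacterial viability or growth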
[16] = molecular target: Nonstructural protein 1 (Influenza A virus, UniProt Q194T2); assay type: functional, Influenza A virus (A/California/07/2009(H1N1))
Nonstructural protein 1, sequence (Q194T2 whole entry): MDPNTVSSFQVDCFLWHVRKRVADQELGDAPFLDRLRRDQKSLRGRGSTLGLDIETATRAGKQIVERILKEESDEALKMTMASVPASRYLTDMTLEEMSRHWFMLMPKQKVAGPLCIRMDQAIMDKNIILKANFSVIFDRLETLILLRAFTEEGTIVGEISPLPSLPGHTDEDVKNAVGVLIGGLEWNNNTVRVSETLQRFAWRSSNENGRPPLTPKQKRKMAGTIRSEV

[17] = molecular target: T4, Voltage-gated N-type calcium channel alpha-1B subunit/Amyloid beta A4 precursor protein-binding family A member 1 (Homo sapiens, UniProt Q00975+Q02410); assay type: protein assay
T4 sequence (Q00975 whole entry): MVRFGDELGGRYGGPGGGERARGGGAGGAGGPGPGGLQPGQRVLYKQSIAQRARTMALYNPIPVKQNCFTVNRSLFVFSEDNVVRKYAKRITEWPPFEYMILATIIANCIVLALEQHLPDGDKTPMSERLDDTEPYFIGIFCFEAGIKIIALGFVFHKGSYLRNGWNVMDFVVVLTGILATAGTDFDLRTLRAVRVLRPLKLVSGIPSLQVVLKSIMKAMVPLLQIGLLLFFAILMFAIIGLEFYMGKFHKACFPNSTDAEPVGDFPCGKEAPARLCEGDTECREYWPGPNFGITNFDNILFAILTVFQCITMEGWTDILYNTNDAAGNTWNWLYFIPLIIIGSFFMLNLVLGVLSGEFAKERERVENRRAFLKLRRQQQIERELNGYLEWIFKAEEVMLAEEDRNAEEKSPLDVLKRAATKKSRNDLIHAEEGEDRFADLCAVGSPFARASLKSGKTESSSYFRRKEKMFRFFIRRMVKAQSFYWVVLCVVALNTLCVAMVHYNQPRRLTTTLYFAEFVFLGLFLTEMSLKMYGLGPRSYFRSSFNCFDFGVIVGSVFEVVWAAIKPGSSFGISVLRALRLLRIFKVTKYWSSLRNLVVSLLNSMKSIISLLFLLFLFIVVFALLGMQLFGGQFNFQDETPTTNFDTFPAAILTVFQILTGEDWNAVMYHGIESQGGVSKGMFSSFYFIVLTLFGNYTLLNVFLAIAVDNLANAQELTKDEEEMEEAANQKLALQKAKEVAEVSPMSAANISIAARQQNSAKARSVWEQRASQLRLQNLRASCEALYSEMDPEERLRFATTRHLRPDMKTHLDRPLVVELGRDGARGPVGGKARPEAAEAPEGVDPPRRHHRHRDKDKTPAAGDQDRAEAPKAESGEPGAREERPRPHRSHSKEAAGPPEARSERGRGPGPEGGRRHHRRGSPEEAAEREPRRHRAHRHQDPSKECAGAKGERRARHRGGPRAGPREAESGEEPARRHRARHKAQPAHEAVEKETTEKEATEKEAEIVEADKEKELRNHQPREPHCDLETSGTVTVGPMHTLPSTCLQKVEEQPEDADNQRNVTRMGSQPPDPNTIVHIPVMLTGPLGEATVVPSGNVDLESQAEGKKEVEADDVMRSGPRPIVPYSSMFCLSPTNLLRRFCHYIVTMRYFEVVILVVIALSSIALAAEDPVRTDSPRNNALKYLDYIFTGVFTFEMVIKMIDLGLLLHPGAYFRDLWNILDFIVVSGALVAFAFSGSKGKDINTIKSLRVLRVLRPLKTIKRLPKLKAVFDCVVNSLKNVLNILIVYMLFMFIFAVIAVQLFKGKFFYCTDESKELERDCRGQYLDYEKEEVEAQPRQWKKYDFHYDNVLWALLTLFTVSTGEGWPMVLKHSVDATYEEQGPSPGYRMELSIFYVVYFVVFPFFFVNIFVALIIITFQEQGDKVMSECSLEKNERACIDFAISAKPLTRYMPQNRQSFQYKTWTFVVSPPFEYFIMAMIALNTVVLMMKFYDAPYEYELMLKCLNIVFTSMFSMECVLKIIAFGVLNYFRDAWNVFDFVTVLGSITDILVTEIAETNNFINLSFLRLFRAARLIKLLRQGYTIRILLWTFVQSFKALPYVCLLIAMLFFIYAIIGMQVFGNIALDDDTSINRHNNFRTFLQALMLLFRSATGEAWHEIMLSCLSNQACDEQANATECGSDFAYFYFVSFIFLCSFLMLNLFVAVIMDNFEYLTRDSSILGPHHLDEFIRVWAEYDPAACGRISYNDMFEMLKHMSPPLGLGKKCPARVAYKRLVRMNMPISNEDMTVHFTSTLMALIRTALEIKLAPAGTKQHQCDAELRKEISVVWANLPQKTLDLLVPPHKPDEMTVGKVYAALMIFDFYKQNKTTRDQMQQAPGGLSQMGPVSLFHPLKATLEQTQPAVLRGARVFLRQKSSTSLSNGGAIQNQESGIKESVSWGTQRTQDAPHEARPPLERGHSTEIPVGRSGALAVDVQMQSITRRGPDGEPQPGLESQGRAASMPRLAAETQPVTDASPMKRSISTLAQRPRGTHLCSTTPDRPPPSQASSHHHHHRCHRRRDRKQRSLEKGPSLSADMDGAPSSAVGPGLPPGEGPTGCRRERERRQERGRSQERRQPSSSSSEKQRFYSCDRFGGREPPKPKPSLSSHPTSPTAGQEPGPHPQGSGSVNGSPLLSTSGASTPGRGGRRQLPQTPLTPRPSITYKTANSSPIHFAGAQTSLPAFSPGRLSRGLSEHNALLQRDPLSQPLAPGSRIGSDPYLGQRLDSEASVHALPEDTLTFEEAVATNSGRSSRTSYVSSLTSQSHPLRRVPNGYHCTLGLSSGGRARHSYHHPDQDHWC
T4 sequence (Q02410 whole entry): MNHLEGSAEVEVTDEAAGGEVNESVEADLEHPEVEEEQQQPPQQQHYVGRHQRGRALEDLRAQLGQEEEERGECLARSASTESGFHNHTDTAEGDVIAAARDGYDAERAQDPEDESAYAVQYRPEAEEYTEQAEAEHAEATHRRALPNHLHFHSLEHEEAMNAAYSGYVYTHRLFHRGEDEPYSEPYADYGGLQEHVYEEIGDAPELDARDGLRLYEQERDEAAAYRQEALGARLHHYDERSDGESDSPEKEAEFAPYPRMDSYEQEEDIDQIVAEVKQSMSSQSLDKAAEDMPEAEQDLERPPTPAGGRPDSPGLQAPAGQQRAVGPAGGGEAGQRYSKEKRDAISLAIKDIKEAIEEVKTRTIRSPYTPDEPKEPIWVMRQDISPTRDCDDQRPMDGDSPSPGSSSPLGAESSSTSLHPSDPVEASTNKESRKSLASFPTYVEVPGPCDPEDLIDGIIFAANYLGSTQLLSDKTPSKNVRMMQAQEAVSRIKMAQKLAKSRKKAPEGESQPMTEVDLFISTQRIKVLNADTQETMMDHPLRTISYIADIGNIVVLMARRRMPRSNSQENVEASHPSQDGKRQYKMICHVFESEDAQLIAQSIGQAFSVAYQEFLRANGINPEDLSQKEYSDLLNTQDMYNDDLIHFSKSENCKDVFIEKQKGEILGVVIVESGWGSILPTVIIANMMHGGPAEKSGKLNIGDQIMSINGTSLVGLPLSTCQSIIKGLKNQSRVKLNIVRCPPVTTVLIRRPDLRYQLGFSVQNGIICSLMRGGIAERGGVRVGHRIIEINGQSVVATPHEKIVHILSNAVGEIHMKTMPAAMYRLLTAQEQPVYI

[18] = molecular target: T4, Voltage-gated N-type calcium channel alpha-1B subunit/Amyloid beta A4 precursor protein-binding family A member 1; assay type: protein assay; remark: listed apart in the source
[19] = P. falciparum Dd2 growth inhibitors, dose response, SYBR Green, cherry-picked samples (AID 1159567); assay type: functional, cell-based
[20] = HepG2 cell cytotoxicity, dose response, cytotoxicity control, cherry-picked samples (AID 1159577); assay type: functional, cell-based
[21] = molecular target: T5, Long-chain-fatty-acid--AMP ligase FadD28 (Mycobacterium tuberculosis, UniProt P9WQ59); assay: Fluorescence polarization aasay to screen for inhibitors that compete for the binding of FadD28 to a bisubstrate Measured in Biochemical System Using Plate Reader - 2147-01_Inhibitor_Dose_CherryPick_Activity.; assay type: functional, Mycobacterium tuberculosis H37Rv
T5 sequence (P9WQ59 whole entry): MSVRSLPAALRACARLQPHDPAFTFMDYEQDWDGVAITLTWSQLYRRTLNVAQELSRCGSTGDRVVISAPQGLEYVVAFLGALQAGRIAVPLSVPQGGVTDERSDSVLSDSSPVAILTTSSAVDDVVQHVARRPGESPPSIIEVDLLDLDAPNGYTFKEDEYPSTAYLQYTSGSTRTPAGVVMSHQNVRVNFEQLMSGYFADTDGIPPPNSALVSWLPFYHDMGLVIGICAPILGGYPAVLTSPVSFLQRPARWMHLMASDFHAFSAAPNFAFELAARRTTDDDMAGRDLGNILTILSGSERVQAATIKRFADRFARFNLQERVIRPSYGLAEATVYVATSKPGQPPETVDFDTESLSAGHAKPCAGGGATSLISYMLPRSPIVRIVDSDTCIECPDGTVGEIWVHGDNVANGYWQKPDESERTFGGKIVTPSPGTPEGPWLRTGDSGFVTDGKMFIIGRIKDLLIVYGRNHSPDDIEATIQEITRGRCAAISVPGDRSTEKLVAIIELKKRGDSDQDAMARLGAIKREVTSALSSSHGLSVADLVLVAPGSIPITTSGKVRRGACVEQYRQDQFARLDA

SMILES: O=C(Nc1ccc2nc(-c3ccco3)c(-c3ccco3)nc2c1)N1CCSCC1
- IC50 [1]: 3.36 µM (active)

SMILES: CN(C)/C=C/C(=O)c1nnn(C2CCCCC2)c1NC1CCCCC1
- EC50 [2]: > 20 µM (not active)
- EC50 [3]: > 20 µM (not active)

SMILES: CCCCCCCn1c2c(c(=N)c3ccccc31)CCC2
- EC50 [4]: > 160 µM (inactive)
- EC50 [5]: 4.4 µM (active)
- EC50 [6]: < 0.1 µM (active)
- EC50 [7]: 25.2 µM (active)
- IC50 [8]: 72.2 µM (inactive)
- EC50 [9]: < 0.004 µM (active)

SMILES: Cc1c(C)c2cc(Cl)c(O)c(CN3CCCC(C)C3)c2oc1=O (stereo not drawn)
- IC50 [10]: 43.1 µM (active)

SMILES: Cc1c(N2C(=O)C(O)=C(C(=O)c3ccc(Cl)cc3)C2c2ccccc2)c(=O)n(-c2ccccc2)n1C (stereo not drawn)
- IC50 [10]: 62.1 µM (active)

SMILES: O=C(CSc1ccccc1C(=O)O)NCc1ccc(Cl)cc1
- IC50 [11]: 17.4 µM (active)

SMILES: O=C(NNC(=O)c1ccccc1O)c1ccc(Cl)c(S(=O)(=O)N2CCc3ccccc32)c1
- IC50 [12]: 77.9 µM (inactive)
- AC50 [13]: 4.28 µM (active)

SMILES: Cc1cccnc1NCc1ccc(O)c2ncccc12
- EC50 [14]: 2.9 µM (active)
- EC50 [2]: 13.6 µM (active)
- EC50 [3]: 10 µM (active)
- EC50 [15]: 3.33 µM (active)
- IC50 [16]: 14.1 µM (active)

SMILES: O=C(CCN1C(=O)/C(=C/c2ccc(Cl)cc2)SC1=S)NC1C=CS(=O)(=O)C1 (stereo not drawn)
- IC50 [17]: 8.45 µM (active)
- IC50 [18]: > 50 µM (inactive)

SMILES: Cc1cc(=O)oc2c(CN3CCCCC3)c(O)c(Cl)cc12
- IC50 [10]: 59.6 µM (active)

SMILES: COc1ccc(-c2[nH]ncc2/C=C(\C#N)C(=O)NC2CC2)cc1
- IC50 [11]: 36.9 µM (active)

SMILES: O=C(Nc1ccc(-n2ccnc2P(=O)(O)c2ccccc2)cc1)c1ccccc1Br
- IC50 [10]: 11.2 µM (active)

SMILES: C[C@@H]1CN([C@H](C)CO)C(=O)c2c(c3ccccc3n2C)-c2ccccc2CO[C@@H]1CN(C)Cc1cccc(O)c1
- AC50 [19]: 4.04 µM (active)
- AC50 [20]: 17.2 µM (active)

SMILES: CCCCCCCCc1nnc(SC(C)C(=O)O)[nH]1 (stereo not drawn)
- IC50 [11]: 5.32 µM (active)

SMILES: O=C1c2n[nH]c(-c3ccccc3O)c2C(c2ccccc2F)N1Cc1ccco1 (stereo not drawn)
- EC50 [2]: 13.1 µM (active)
- EC50 [3]: 15 µM (active)

SMILES: COc1ccc(C(=O)N/N=C/c2ccc(OC)c(CN3CCCc4ccccc43)c2)cc1
- IC50 [12]: > 80 µM (inactive)

SMILES: CCOC(=O)c1nnn2c1nc(Nc1cccc(C(F)(F)F)c1)c1ccccc12
- IC50 [17]: 25.1 µM (active)
- IC50 [18]: > 50 µM (inactive)

SMILES: COC(=O)c1cc(NC(=O)c2ccccc2)c(=O)oc1/C=C/Nc1ccc(Oc2ccccc2)cc1
- IC50 [17]: 6.82 µM (active)
- IC50 [18]: > 50 µM (inactive)
- AC50 [21]: 60.3 µM (active)

SMILES: N#C[C@H]1[C@H](c2ccc(C#CC3CCCCC3)cc2)[C@@H](CO)N1C(=O)Nc1ccc(F)cc1
- AC50 [19]: 4.35 µM (active)
- AC50 [20]: 9.27 µM (active)

SMILES: COc1ccc(NC(=O)Cc2c(F)cccc2Cl)cc1
- IC50 [11]: 13.6 µM (active)
